Laboratory results taken from patent publication US9750727B2 (priority 2010, dated 2017).
Like-named read-outs stand apart in the source and are kept apart here.

Columns and labels:
[1] = test system: M. bovis bovinus 8; format: in vivo, mice
[2] = test system: M. bovis bovinus 8; format: in vivo, mice; remark: listed apart in the source
[3] = test system: M. bovis bovinus 8; format: in vivo, mice; details: combination of the new treatment with the TB drug
[4] = test system: M. bovis bovinus 8; format: in vivo, rabbits; details: for Body weight ITE (%): 15 mg/kg
[5] = in vivo; cited from earlier work
[6] = test system: M. bovis bovinus 8; format: cell-based
[7] = test system: M. tuberculosis H37Rv; assay: Double serial dilution, growth of drug-sensitive test strain; format: cell-based; design: key to Degree of mycobacterial growth: primary inhibition of mycobacterial growth (++)
[8] = test system: M. tuberculosis Erdman; assay: as above; format: cell-based; design: key to Degree of mycobacterial growth: primary inhibition of mycobacterial growth (++); details: for Degree of mycobacterial growth: 10^6 cells/ml
[9] = test system: M. tuberculosis “Academia”; assay: as above; format: cell-based; design: key to Degree of mycobacterial growth: primary inhibition of mycobacterial growth (++)
[10] = test system: gram-positive and gram-negative microorganisms; format: cell-based
[11] = test system: M. bovis bovinus 8; design: species or system mice; details: mouse, in vivo
[12] = General toxicity; format: in vivo
[13] = Embryo toxicity, teratogenicity and reproductive function; format: in vivo, animals
[14] = Allergenic, immunotoxic and mutagenic properties
[15] = Stability during storage; format: physicochemical
[16] = test system: Mycobacteria tuberculosis; assay: Tuberculostatic activity compared with the prototype drug; details: in comparison with the prototype drug
[17] = TB drug combined with the new treatment (20 mg/kg, per os) vs TB drug monotherapy, mice, 42 days
[18] = TB drug combined with the new treatment (20 mg/kg, per os) vs TB drug monotherapy, mice, 42 days of treatment
[19] = new treatment in combination with the TB drug, compared to monotherapy with the new treatment alone
[20] = rabbits, 15 mg/kg per os, vs infection control
[21] = 3.125 μg/ml in medium, 10^6 cells/ml

SMILES: NCC[C@H](O)C(=O)N[C@@H]1C[C@H](N)[C@@H](O[C@H]2O[C@H](CN)[C@@H](O)[C@H](O)[C@H]2O)[C@H](O)[C@H]1O[C@H]1O[C@H](CO)[C@@H](O)[C@H](N)[C@H]1O [Amycacin, amycacin]
- decrease in the coefficient of liver weight ([1]; mouse, in vivo): 34.6%
- decrease in the index of lung damage ([1]; mouse, in vivo): 1.8%
- effect of combination on therapeutic effectiveness, in words ([1]; mouse, in vivo): increased the therapeutic effectiveness
- increase in therapeutic effectiveness (average of indices of organ damage) ([1]; mouse, in vivo): 11.34%
- Scored sum of area: Breathing lung tissue ([2]; mouse, in vivo): 17.7
- Scored sum of area: Dense lymphocytic infiltrate ([2]; mouse, in vivo): 3.12
- Scored sum of area: Desquamative pneumonia ([2]; mouse, in vivo): 2.94
- Scored sum of area: Polymorpho cellular infiltrate ([2]; mouse, in vivo): 0
- Scored sum of area: Total lung tissue ([2]; mouse, in vivo): 23.76
- improvement of the indices of lung damage (morphological) ([2]; mouse, in vivo): 2.56%

SMILES: CC[C@@H](CO)NCCN[C@@H](CC)CO [Ethambutol, ethambutol]
- decrease in CFU levels in the spleen [1, 17]: 33.3%
- decrease in coefficient of spleen weight [1, 17]: 22.1%
- decrease in the coefficient of liver weight [1, 17]: 8.9%
- increase in the index of lung damage [1, 17]: 4.0%
- increase in the index of lung weight [1, 17]: 3.1%
- increase in therapeutic effectiveness (average of indices of organ damage) [1, 18]: 11.44%
- effect of combination on therapeutic effectiveness, in words [1, 19]: increased the therapeutic effectiveness
- Scored sum of area: Breathing lung tissue ([2]; mice, 42 days of treatment): 9.78
- Scored sum of area: Dense lymphocytic infiltrate ([2]; mice, 42 days of treatment): 6.8
- Scored sum of area: Desquamative pneumonia ([2]; mice, 42 days of treatment): 6.93
- Scored sum of area: Polymorpho cellular infiltrate ([2]; mice, 42 days of treatment): 0.27
- Scored sum of area: Total lung tissue ([2]; mice, 42 days of treatment): 23.78
- therapeutic effectiveness of the combination, in words [3]: weak therapeutic effectiveness

SMILES: NNC(=O)c1ccncc1 [Isoniazid, isonicotinic acid hydrazide]
- Body weight % of initial ([4]; rabbits, 15 mg/kg per os): −6.99%
- Lethality % of initial number ([4]; rabbits, 15 mg/kg per os): 0%
- Lethality ITE (%) [4, 20]: +100.0%
- Body weight ITE (%) [4, 20]: +74.67%
- Body weight ITE (%) ([4]; rabbits, 15 mg/kg per os, vs infection control, listed as isoniazid): 74.67%
- decrease in CFU levels in the spleen [1, 17]: 25%
- decrease in the coefficient of liver weight [1, 17]: 3.6%
- increase in therapeutic effectiveness (average of indices of organ damage) [1, 18]: 13.9%
- effect of combination on therapeutic effectiveness, in words [1, 19]: increased the therapeutic effectiveness
- Scored sum of area: Breathing lung tissue ([2]; mice, 42 days of treatment): 17.5
- Scored sum of area: Dense lymphocytic infiltrate ([2]; mice, 42 days of treatment): 1.59
- Scored sum of area: Desquamative pneumonia ([2]; mice, 42 days of treatment): 3.52
- Scored sum of area: Polymorpho cellular infiltrate ([2]; mice, 42 days of treatment): 0.86
- Scored sum of area: Total lung tissue ([2]; mice, 42 days of treatment): 23.47
- LD50 [5]: 150 mg/kg

SMILES: CC1COc2c(N3CCN(C)CC3)c(F)cc3c(=O)c(C(=O)O)cn1c23 (centres unmarked) [Ofloxacin]
- decrease in indices (of therapeutic effectiveness), range over indices [1, 17]: 4.65% to 11.9
- increase in the index of lung damage [1, 17]: 2.6%
- decrease in therapeutic effectiveness [1, 18]: 6.2%
- Scored sum of area: Breathing lung tissue ([2]; mice, 42 days of treatment): 7.32
- Scored sum of area: Dense lymphocytic infiltrate ([2]; mice, 42 days of treatment): 6.32
- Scored sum of area: Desquamative pneumonia ([2]; mice, 42 days of treatment): 10.49
- Scored sum of area: Polymorpho cellular infiltrate ([2]; mice, 42 days of treatment): 0.04
- Scored sum of area: Total lung tissue ([2]; mice, 42 days of treatment): 24.17

SMILES: CO[C@H]1/C=C/O[C@@]2(C)Oc3c(C)c(O)c4c(c3C2=O)C2=NC3(CCN(CC(C)C)CC3)NC2=C(NC(=O)/C(C)=C\C=C\[C@H](C)[C@H](O)[C@@H](C)[C@@H](O)[C@@H](C)[C@H](OC(C)=O)[C@@H]1C)C4=O [Rifabutin, rifabutin]
- decrease in coefficient of lung weight [1, 17]: 12.4%
- decrease in coefficient of spleen weight [1, 17]: 20.6%
- increase in the coefficient of liver weight [1, 17]: 0.4%
- increase in the index of lung damage [1, 17]: 7.4%
- increase in therapeutic effectiveness (average of indices of organ damage) [1, 18]: 7.68%
- effect of combination on therapeutic effectiveness, in words [1, 19]: increased the therapeutic effectiveness
- Scored sum of area: Breathing lung tissue ([2]; mice, 42 days of treatment): 23.27
- Scored sum of area: Dense lymphocytic infiltrate ([2]; mice, 42 days of treatment): 0.53
- Scored sum of area: Desquamative pneumonia ([2]; mice, 42 days of treatment): 0.16
- Scored sum of area: Polymorpho cellular infiltrate ([2]; mice, 42 days of treatment): 0
- Scored sum of area: Total lung tissue ([2]; mice, 42 days of treatment): 23.96

SMILES: CO[C@H]1/C=C/O[C@@]2(C)Oc3c(C)c(O)c4c(O)c(c(/C=N/N5CCN(C)CC5)c(O)c4c3C2=O)NC(=O)/C(C)=C\C=C\[C@H](C)[C@H](O)[C@@H](C)[C@@H](O)[C@@H](C)[C@H](OC(C)=O)[C@@H]1C [Rifampicin, rifampicin]
- decrease in coefficient of lung weight [1, 17]: 18.2%
- decrease in coefficient of spleen weight [1, 17]: 34.6%
- decrease in the coefficient of liver weight [1, 17]: 1.6%
- increase in CFU levels [1, 17]: 6.19%
- increase in therapeutic effectiveness (average of indices of organ damage) [1, 18]: 9.66%
- Scored sum of area: Breathing lung tissue ([2]; mice, 42 days of treatment): 19.65
- Scored sum of area: Desquamative pneumonia ([2]; mice, 42 days of treatment): 1.94
- Scored sum of area: Polymorpho cellular infiltrate ([2]; mice, 42 days of treatment): 0
- Scored sum of area: Total lung tissue ([2]; mice, 42 days of treatment): 23.96

SMILES: NC(=S)NN=Cc1ccncc1.[O-][Cl+3]([O-])([O-])O [new treatment]
- complete inhibition (MIC) [6]: 1.56 µg/mL
- concentration of primary inhibition of mycobacterial growth (++) [6]: 0.19 µg/mL
- Degree of mycobacterial growth [7, 21]: ++
- MIC ([7]; M. tuberculosis H37RV): 6.25 µg/mL
- Degree of mycobacterial growth ([8]; 0.19 μg/ml in medium): ++
- Degree of mycobacterial growth ([8]; 0.39 μg/ml in medium): ++
- Degree of mycobacterial growth ([8]; 0.78 μg/ml in medium): ++
- MIC ([8]; M. tuberculosis Erdman): 3.125 µg/mL
- Degree of mycobacterial growth [9, 21]: ++
- MIC ([9]; M. tuberculosis “Academia”): 6.25 µg/mL
- effect on the growth of gram-positive and gram-negative microorganisms [10]: did not affect the growth
- Body weight % of initial ([11]; 10 mg/kg): 81.9%
- Lethality % ([11]; 10 mg/kg): 62.5%
- Body weight % of initial ([11]; 20 mg/kg): 94.5%
- Lethality % ([11]; 20 mg/kg): 25.0%
- Body weight % of initial ([11]; 30 mg/kg): 92.6%
- Lethality % ([11]; 30 mg/kg): 2.4%
- Body weight % of initial ([4]; rabbit, in vivo, 20 mg/kg): −7.13%
- Lethality % of initial number ([4]; rabbit, in vivo, 20 mg/kg): 0%
- Lethality ITE (%) ([4]; rabbit, in vivo, 20 mg/kg): +100.0%
- toxicity relative to the prototype drug (lower) ([12]; in comparison with the prototype drug): 2.4 times
- damage to vital organs and systems ([12]; in vivo): neither a significant structural and functional damage to vital organs and systems
- toxicity, in words ([12]; in vivo): low toxic agent
- dose with teratogenic effect (non life-threatening skeletal malformations, delay in ossification, edema, subcutaneous hemorrhage) ([13]; administered during organogenesis, five times the therapeutic dose): 100 mg/kg
- effect on the reproductive function and offspring development in animals ([13]; continued administration): no effect
- alterations in placenta development and sex formation ([13]; in vivo): no alterations
- embryo toxicity ([13]; mainly if administered during organogenesis): moderate embryo toxicity
- allergenic properties [14]: no
- immunotoxic properties [14]: no
- mutagenic properties [14]: no
- time for which appearance, physical characteristics and biological properties are stable [15]: 3 years
- tuberculostatic activity relative to the prototype drug (higher) [16]: 200 times
